Laboratory results from PubChem BioAssay AID493116 (Broad Institute, 2011).
Calls of active or inactive are those of the source.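 The calls were made as follows: active = falling signal with an AC50 no greater than ten times the top valid dose tested for that sample; inconclusive = flat response with 30 to 70% inhibition, or poor fit; inactive = activity in the rising direction, and the rest.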

Test system: not listed separately
Assay: AI-2 driven bioluminescence decrease, LuxPQ pathway – strain MM32 LuxS-null, luminescence, dry powder, set 4, mechanism study for V. harveyi quorum sensing inhibitors, dose response (AID 493116)
Settings: V. harveyi MM32 AI-2 bioluminescence, 5 h; at 16 µM (top of the series)

SMILES	activity change, negative = inhibition
CC(=O)Nc1ccccc1NS(=O)(=O)c1cn(C)cn1	-2.94% (inactive)
Cn1cnc(S(=O)(=O)Nc2ccccc2F)c1	-0.646% (inactive)
COc1ccccc1NS(=O)(=O)c1cn(C)cn1	-4.54% (inactive)
CCc1ccc(-c2ccc(C(=O)O)n2CC)cc1	1.73% (inactive)
CN(C)C(=O)c1ccccc1NS(=O)(=O)c1cn(C)cn1	0.78% (inactive)

Test system: V. harveyi MM32 AI-2 bioluminescence, 5 h
Assay: as above
Settings: not given

SMILES	AC50
Cc1ccccc1NS(=O)(=O)c1cn(C)cn1	> 16 µM (inactive)
Cn1cnc(S(=O)(=O)Nc2ccc(OC(F)(F)F)cc2)c1	2.39 µM
O=S(=O)(Nc1cccnc1)c1ccc(Oc2ccccc2)cc1	0.538 µM
C=Cn1c(C(=O)O)ccc1-c1ccc(CC)cc1	2.34 µM
C=Cn1c(C(=O)O)ccc1-c1ccc(OC)cc1	6.14 µM
Cn1cnc(S(=O)(=O)Nc2ccccc2Cl)c1	> 16 µM (inactive)
CCc1ccc(-c2ccc(C(=O)O)n2C)cc1	2.84 µM
O=C1C=C/C(=C/Br)O1	2.29 µM
O=S(=O)(Nc1ccccn1)c1ccc(Oc2ccccc2)cc1	2.25 µM
